From patent publication US7056934B2, “Nicotinamide derivatives useful as PDE4 inhibitors” (Pfizer Inc, priority 2003, dated 2006)

Each compound was assayed on human peripheral blood mononuclear cells (assay: Inhibition of LPS-stimulated TNFα release from human peripheral blood mononuclear cells (TNFα screen)). Settings: LPS-stimulated human PBMC, 18 hours incubation, TNFα in supernatant by ELISA.
Type: cell-based
Protocol: Venous blood is collected from healthy volunteers and the mononuclear cells purified by centrifugation through Histopaque (Ficoll) cushions. TNFα production from these cells is stimulated by addition of lipopolysaccharide. After 18 hours incubation in the presence of LPS, the cell supernatant is removed and the concentration of TNFα in the supernatant determined by ELISA.

Row | Compound | IC50 [nM]
1 | CSc1cccc(Oc2ncc(F)cc2C(=O)N[C@H]2CC[C@@H](NC(=O)c3ccc(CO)cc3O)CC2)c1 [Example 2, Syn-5-Fluoro-N-[4-(2-hydroxy-4-hydroxymethyl-benzoylamino)-cyclohexyl]-2-(3-methylsulfanyl-phenoxy)-nicotinamide] | 0.6
2 | CSc1cccc(Oc2ncc(F)cc2C(=O)N[C@H]2CC[C@@H](NC(=O)c3cn(CCO)cn3)CC2)c1 [Example 3, Syn-5-Fluoro-N-(4-{[1-(2-hydroxy-ethyl)-1H-imidazole-4-carbonyl]-amino}-cyclohexyl)-2-(3-methylsulfanyl-phenoxy)-nicotinamide] | 1.6
3 | CSc1cc(Oc2ncc(F)cc2C(=O)N[C@H]2CC[C@@H](NC(=O)c3ccccc3OCCO)CC2)ccc1F [Example 9, Syn-5-Fluoro-2-(4-fluoro-3-methylsulfanyl-phenoxy)-N-{4-[2-(2-hydroxy-ethoxy)-benzoylamino]-cyclohexyl}-nicotinamide] | 0.36
4 | CSc1cccc(Oc2ncc(F)cc2C(=O)N[C@H]2CC[C@@H](NC(=O)c3cc(C(C)C)n(CCO)n3)CC2)c1 [Example 10, Syn-5-Fluoro-N-(4-{[1-(2-hydroxy-ethyl)-5-isopropyl-1H-pyrazole-3-carbonyl]-amino}-cyclohexyl)-2-(3-methylsulfanyl-phenoxy)-nicotinamide] | 2.5
5 | Syn-5-Chloro-N-{4-[2-(2-hydroxy-ethoxy)-benzoylamino]-cyclohexyl}-2-(3-methylsulfanyl-phenoxy)-nicotinamide [Example 18] | 0.15
6 | Syn-5-Fluoro-N-(4-{[1-(2-hydroxy-ethyl)-1H-pyrazole-3-carbonyl]-amino}-cyclohexyl)-2-(3-methylsulfanyl-phenoxy)-nicotinamide [Example 5] | 0.24
7 | Syn-5-Fluoro-N-(4-{[1-(2-hydroxy-ethyl)-1H-pyrazole-4-carbonyl]-amino}-cyclohexyl)-2-(3-methylsulfanyl-phenoxy)-nicotinamide [Example 7] | 4.6
8 | Syn-5-Fluoro-N-(4-{[1-(2-hydroxy-ethyl)-5-methyl-1H-pyrazole-3-carbonyl]-amino}-cyclohexyl)-2-(3-methylsulfanyl-phenoxy)-nicotinamide [Example 8] | 0.2
9 | Syn-5-Fluoro-N-{4-[2-(2-hydroxy-ethoxy)-3-methyl-benzoylamino]-cyclohexyl}-2-(3-methylsulfanyl-phenoxy)-nicotinamide [Example 13] | 0.07
10 | Syn-5-Fluoro-N-{4-[2-(2-hydroxy-ethoxy)-4-methyl-benzoylamino]-cyclohexyl}-2-(3-methylsulfanyl-phenoxy)-nicotinamide [Example 12] | 0.3
11 | Syn-5-Fluoro-N-{4-[2-(2-hydroxy-ethoxy)-5-methyl-benzoylamino]-cyclohexyl}-2-(3-methylsulfanyl-phenoxy)-nicotinamide [Example 11] | 0.8
12 | Syn-N-(4-{[5-Ethyl-1-(2-hydroxy-ethyl)-1H-pyrazole-3-carbonyl]-amino}-cyclohexyl)-5-fluoro-2-(3-methylsulfanyl-phenoxy)-nicotinamide [Example 17] | 0.05
13 | Syn-N-{4-[4-Chloro-2-(2-hydroxy-ethoxy)-benzoylamino]-cyclohexyl}-5-fluoro-2-(3-methylsulfanyl-phenoxy)-nicotinamide [Example 15] | 1.6
14 | Syn-N-{4-[5-Chloro-2-(2-hydroxy-ethoxy)-benzoylamino]-cyclohexyl}-5-fluoro-2-(3-methylsulfanyl-phenoxy)-nicotinamide [Example 14] | 0.6
